# Assay results as given in US10597388B2, “Pyridazinone herbicides” (FMC CORPORATION, priority 2014, dated 2020).
# Legend:
# Experiment in all cases: Test D controlled growth environment herbicide test, pre- and postemergence
# Type in all cases: in vivo
# [1] = tested on: barley, winter (winter barley, Hordeum vulgare)
# Procedure, shortened: (§1)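 Species sown in silt loam and sprayed preemergence, or grown in peat-based medium to 2–18 cm (1- to 4-leaf stage) and sprayed postemergence, with compounds in non-phytotoxic solvent plus surfactant. Visual injury scored versus controls after 14–21 d in a controlled environment, 0 (no effect) to 100 (complete control).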
# [2] = tested on: mustard, wild (wild mustard, Sinapis arvensis)
# Procedure, shortened: as §1
# [3] = tested on: field poppy (Papaver rhoeas)
# Procedure, shortened: as §1
# [4] = tested on: windgrass (Apera spica-venti)
# Procedure, shortened: as §1
# [5] = tested on: lambsquarters (Chenopodium album)
# Procedure, shortened: as §1
# [6] = tested on: wheat, spring (spring wheat, Triticum aestivum)
# Procedure, shortened: as §1
# [7] = tested on: wheat, winter (winter wheat, Triticum aestivum)
# Procedure, shortened: as §1
# [8] = tested on: chickweed (common chickweed, Stellaria media)
# Procedure, shortened: as §1
# [9] = tested on: foxtail, green (green foxtail, Setaria viridis)
# Procedure, shortened: as §1
# [10] = tested on: chamomile (scentless chamomile, Matricaria inodora)
# Procedure, shortened: as §1
# [11] = tested on: pigweed (Amaranthus retroflexus)
# Procedure, shortened: as §1
# [12] = tested on: blackgrass (Alopecurus myosuroides)
# Procedure, shortened: as §1
# [13] = tested on: oat, wild (wild oat, Avena fatua)
# Procedure, shortened: as §1
# [14] = tested on: bromegrass, downy (downy bromegrass, Bromus tectorum)
# Procedure, shortened: as §1
# [15] = Postemergence, 31 g ai/ha, scale 0 to 100 (0 no effect, 100 complete control)
# [16] = Postemergence, 125 g ai/ha, visual rating on scale 0 (no effect) to 100 (complete control), 14 to 21 d
# [17] = Postemergence, 250 g ai/ha, scale 0 to 100 (0 no effect, 100 complete control)
# [18] = Preemergence, 62 g ai/ha, scale 0 to 100 (0 no effect, 100 complete control)
# [19] = Preemergence, 125 g ai/ha, scale 0 to 100 (0 no effect, 100 complete control)
# [20] = Preemergence, 250 g ai/ha, scale 0 to 100, 0 no effect, 100 complete control
# [21] = postemergence, 62 g ai/ha, scale 0 to 100, 0 no effect, 100 complete control
structure (smiles),measurement,setting,value
CC(=O)Oc1c(C)nn(C)c(=O)c1-c1c(C)sc2ccc(Cl)cc12 [Compound 108],"Barley, Winter plant response rating",[1]; [15],5
same,"Plant response rating, Barley, Winter",[1]; [16],10
same,"Plant response rating, Barley, Winter",[1]; [17],15
same,"Plant response rating (scale of 0 to 100), Barley, Winter","[1]; Preemergence, 31 g ai/ha",0
same,"Plant response rating, Barley, Winter",[1]; [18],0
same,"Plant response rating, Barley, Winter",[1]; [19],10
same,"Plant response rating, Barley, Winter",[1]; [20],20
same,"Plant response rating, Barley, Winter",[1]; [21],5
same,"Mustard, Wild plant response rating",[2]; [15],70
same,"Plant response rating, Mustard, Wild",[2]; [16],95
same,"Plant response rating, Mustard, Wild",[2]; [17],100
same,"Plant response rating (scale of 0 to 100), Mustard, Wild","[2]; Preemergence, 31 g ai/ha",5
same,"Plant response rating (scale of 0 to 100), Mustard, Wild","[2]; Preemergence, 62 g ai/ha",60
same,"Plant response rating, Mustard, Wild",[2]; [19],95
same,"Plant response rating, Mustard, Wild",[2]; [20],85
same,"Plant response rating, Mustard, Wild",[2]; [21],75
same,Field Poppy plant response rating,[3]; [15],20
same,"Plant response rating, Field Poppy",[3]; [16],65
same,"Plant response rating, Field Poppy",[3]; [17],75
same,"Plant response rating (scale of 0 to 100), Field Poppy","[3]; Preemergence, 31 g ai/ha",10
same,"Plant response rating (scale of 0 to 100), Field Poppy","[3]; Preemergence, 62 g ai/ha",10
same,"Plant response rating, Field Poppy",[3]; [19],100
same,"Plant response rating, Field Poppy",[3]; [20],100
same,"Plant response rating, Field Poppy",[3]; [21],55
same,Windgrass plant response rating,[4]; [15],65
same,"Plant response rating, Windgrass",[4]; [16],75
same,"Plant response rating, Windgrass",[4]; [17],85
same,"Plant response rating (scale of 0 to 100), Windgrass","[4]; Preemergence, 31 g ai/ha",25
same,"Plant response rating (scale of 0 to 100), Windgrass","[4]; Preemergence, 62 g ai/ha",50
same,"Plant response rating, Windgrass",[4]; [19],75
same,"Plant response rating, Windgrass",[4]; [20],95
same,"Plant response rating, Windgrass",[4]; [21],70
same,Lambsquarters plant response rating,[5]; [15],90
same,"Plant response rating, Lambsquarters",[5]; [16],100
same,"Plant response rating, Lambsquarters",[5]; [17],100
same,"Plant response rating (scale of 0 to 100), Lambsquarters","[5]; Preemergence, 31 g ai/ha",100
same,"Plant response rating (scale of 0 to 100), Lambsquarters","[5]; Preemergence, 62 g ai/ha",100
same,"Plant response rating, Lambsquarters",[5]; [19],100
same,"Plant response rating, Lambsquarters",[5]; [20],100
same,"Plant response rating, Lambsquarters",[5]; [21],95
same,"Wheat, Spring plant response rating",[6]; [15],15
same,"Plant response rating, Wheat, Spring",[6]; [16],20
same,"Plant response rating, Wheat, Spring",[6]; [17],30
same,"Plant response rating (scale of 0 to 100), Wheat, Spring","[6]; Preemergence, 31 g ai/ha",0
same,"Plant response rating (scale of 0 to 100), Wheat, Spring","[6]; Preemergence, 62 g ai/ha",20
same,"Plant response rating, Wheat, Spring",[6]; [19],25
same,"Plant response rating, Wheat, Spring",[6]; [20],40
same,"Plant response rating, Wheat, Spring",[6]; [21],20
same,"Wheat, Winter plant response rating",[7]; [15],10
same,"Plant response rating, Wheat, Winter",[7]; [16],20
same,"Plant response rating, Wheat, Winter",[7]; [17],20
same,"Plant response rating (scale of 0 to 100), Wheat, Winter","[7]; Preemergence, 31 g ai/ha",0
same,"Plant response rating (scale of 0 to 100), Wheat, Winter","[7]; Preemergence, 62 g ai/ha",0
same,"Plant response rating, Wheat, Winter",[7]; [19],10
same,"Plant response rating, Wheat, Winter",[7]; [20],30
same,"Plant response rating, Wheat, Winter",[7]; [21],15
same,Chickweed plant response rating,[8]; [15],90
same,"Plant response rating, Chickweed",[8]; [16],100
same,"Plant response rating, Chickweed",[8]; [17],100
same,"Plant response rating (scale of 0 to 100), Chickweed","[8]; Preemergence, 31 g ai/ha",100
same,"Plant response rating (scale of 0 to 100), Chickweed","[8]; Preemergence, 62 g ai/ha",100
same,"Plant response rating, Chickweed",[8]; [19],100
same,"Plant response rating, Chickweed",[8]; [20],100
same,"Plant response rating, Chickweed",[8]; [21],100
same,"Foxtail, Green plant response rating",[9]; [15],65
same,"Plant response rating, Foxtail, Green",[9]; [16],75
same,"Plant response rating, Foxtail, Green",[9]; [17],95
same,"Plant response rating (scale of 0 to 100), Foxtail, Green","[9]; Preemergence, 31 g ai/ha",30
same,"Plant response rating (scale of 0 to 100), Foxtail, Green","[9]; Preemergence, 62 g ai/ha",90
same,"Plant response rating, Foxtail, Green",[9]; [19],100
same,"Plant response rating, Foxtail, Green",[9]; [20],100
same,"Plant response rating, Foxtail, Green",[9]; [21],70
same,Chamomile plant response rating,[10]; [15],75
same,"Plant response rating, Chamomile",[10]; [16],95
same,"Plant response rating, Chamomile",[10]; [17],100
same,"Plant response rating, Chamomile",[10]; [21],85
same,Pigweed plant response rating,[11]; [15],95
same,"Plant response rating, Pigweed",[11]; [16],100
same,"Plant response rating, Pigweed",[11]; [17],100
same,"Plant response rating (scale of 0 to 100), Pigweed","[11]; Preemergence, 31 g ai/ha",100
same,"Plant response rating (scale of 0 to 100), Pigweed","[11]; Preemergence, 62 g ai/ha",100
same,"Plant response rating, Pigweed",[11]; [19],100
same,"Plant response rating, Pigweed",[11]; [20],100
same,"Plant response rating, Pigweed",[11]; [21],100
same,Blackgrass plant response rating,[12]; [15],20
same,"Plant response rating, Blackgrass",[12]; [16],65
same,"Plant response rating, Blackgrass",[12]; [17],75
same,"Plant response rating (scale of 0 to 100), Blackgrass","[12]; Preemergence, 31 g ai/ha",15
same,"Plant response rating, Blackgrass",[12]; [18],35
same,"Plant response rating, Blackgrass",[12]; [19],50
same,"Plant response rating, Blackgrass",[12]; [20],80
same,"Plant response rating, Blackgrass",[12]; [21],45
same,"Oat, Wild plant response rating",[13]; [15],85
same,"Plant response rating, Oat, Wild",[13]; [16],100
same,"Plant response rating, Oat, Wild",[13]; [17],100
same,"Plant response rating (scale of 0 to 100), Oat, Wild","[13]; Preemergence, 31 g ai/ha",80
same,"Plant response rating (scale of 0 to 100), Oat, Wild","[13]; Preemergence, 62 g ai/ha",80
same,"Plant response rating, Oat, Wild",[13]; [19],80
same,"Plant response rating, Oat, Wild",[13]; [20],95
same,"Plant response rating, Oat, Wild",[13]; [21],95
same,"Bromegrass, Downy plant response rating",[14]; [15],25
same,"Plant response rating, Bromegrass, Downy",[14]; [16],40
same,"Plant response rating, Bromegrass, Downy",[14]; [17],65
same,"Plant response rating (scale of 0 to 100), Bromegrass, Downy","[14]; Preemergence, 31 g ai/ha",25
same,"Plant response rating, Bromegrass, Downy",[14]; [18],25
same,"Plant response rating, Bromegrass, Downy",[14]; [19],70
same,"Plant response rating, Bromegrass, Downy",[14]; [20],75
same,"Plant response rating, Bromegrass, Downy",[14]; [21],30
